From patent US9239331B2, “Method for predicting the response to HER2-directed therapy” (Ventana Medical Systems, Inc., priority 2002, dated 2016) come the findings set out here.

This assay concerns breast cancer patients. In words: Patient response in breast cancer tissue microarray cohort: chemotherapy together with HERCEPTIN®, response from case histories at last follow-up. The class given is in vivo, human. As to conditions: treatment following surgery (followed by Herceptin ®). On the procedure: Immunohistochemistry for detecting and measuring predictive biomarker expression, activation or both was performed as follows. HER2/neu, EGFR, HER3, IGFR, TGF-α, Heregulin (NDF), p-ERK, p-AKT, and p-S6 ribosomal protein or phosphorylation levels were quantified using alkaline phosphatase or peroxidase techniques and microscope-based image analysis of immunohistochemically stained slides (as described in Bacus et al., 1997, Analyt. Quant. Cytol. Histol. 19: 316-328). Quantification was by means of a CAS 200 image analyzer, as previously described (Bacus & Ruby, 1993, Pathol Annu, 28: 179-204). For the purpose of the analysis, tumors were classified as negative or positive for each antibody based upon the level of staining. Statistical analysis was performed using Systat to quantify frequencies and calculate Pearson Chi-squared tests of significance for interactions between variables. In all cases, the p value refers to the significance of the deviation of the distribution of samples from what would be expected based upon the overall population distribution. Comparisons were performed only on samples for which all relevant data were available. […] All patients had received post-surgical radiotherapy. The tissue samples in the array were taken before treatment. HER2/neu expression had been determined by using the […] system (DAKO, Carpinteria, Calif.) on the original biopsies for all patients. Patient response was based upon the case histories at last follow-up as decided by an independent pathologist provided by Clinomics.

For the compound `COc1cccc2c1C(=O)c1c(O)c3c(c(O)c1C2=O)C[C@@](O)(C(=O)CO)C[C@@H]3O[C@H]1C[C@H](N)[C@H](O)[C@H](C)O1` [Doxorubicin], the “disease-free or stable disease” value worked out at 2% and the relapse is recorded as 98%.
Consider `CC(=O)O[C@H]1C(=O)[C@@]2(C)[C@H]([C@H](OC(=O)c3ccccc3)[C@]3(O)C[C@H](OC(=O)[C@H](O)[C@@H](NC(=O)c4ccccc4)c4ccccc4)C(C)=C1C3(C)C)[C@]1(OC(C)=O)CO[C@@H]1C[C@@H]2O` [Paclitaxel], for which the “disease-free or stable disease” value was 100% and the relapse was 0%.
